Source: DBAASP
Values after ≈ are worked out from the molar mass of the structure shown. Values joined by “and” are separate entries in the source; they are usually repeats but may differ in a detail not shown here. Equal entries are not always repeated. One block for each molecule: values may come before it.

Tests used:
Test in all cases: ≥ marks a high value that may be exact or a test limit, other limits are often not marked, values filed in µg/mL are converted to µM
[1] = system: Candida albicans NCYC 1467
[2] = system: Escherichia coli NCTC 10418
[3] = system: Pseudomonas aeruginosa ATCC 27853
[4] = system: Staphylococcus aureus ATCC 12493
[5] = system: Staphylococcus aureus NCTC 10788
[6] = system: Escherichia coli ATCC 25922
[7] = system: Escherichia coli KpC+001812446
[8] = system: Klebsiella pneumoniae ATCC 13883
[9] = system: Klebsiella pneumoniae KpC+001825971
[10] = system: Staphylococcus aureus ATCC 25923
[11] = system: Aspergillus flavus KCTC 6905
[12] = system: Candida albicans CCARM 14001
[13] = system: Candida albicans CCARM 14004
[14] = system: Candida albicans CCARM 14007
[15] = system: Candida albicans CCARM 14020
[16] = system: Candida albicans KCTC 7270
[17] = system: Candida krusei CCARM 14017
[18] = system: Candida parapsilosis CCARM 14016
[19] = system: Colletotrichum gloeosporioides KCTC 6169
[20] = system: Fusarium graminearum KCTC 16656
[21] = system: Fusarium oxysporum KCTC 16909
[22] = system: Fusarium solani KCTC 6326
[23] = system: Fusarium verticillioides KCTC 6149
[24] = system: Trichoderma virens KCTC 16924
[25] = system: Trichoderma viride KCTC 16992
[26] = system: Trichophyton rubrum KCTC 6345
[27] = system: Acinetobacter baumannii
[28] = system: Escherichia coli K88
[29] = system: Escherichia coli K99
[30] = system: Escherichia coli UB1005
[31] = system: Escherichia coli
[32] = system: Klebsiella pneumoniae
[33] = system: Pseudomonas aeruginosa CICC 21625
[34] = system: Pseudomonas aeruginosa CICC 21630
[35] = system: Pseudomonas aeruginosa PAO1
[36] = system: Pseudomonas aeruginosa
[37] = system: Salmonella enterica subsp. enterica serovar Pullorum C79-13
[38] = system: Salmonella enterica subsp. enterica serovar Typhimurium ATCC 14028
[39] = system: Salmonella enterica subsp. enterica serovar Typhimurium C77-31
[40] = system: Escherichia coli C600
[41] = system: Staphylococcus aureus 209P
[42] = system: Escherichia coli BL21(DE3)

MIC [1]: ≥ 512 µM
MIC [2]: ≥ 128 µM
MIC [3]: > 512 µM
MIC [4]: ≥ 512 µM
MIC [5]: ≥ 128 µM
Structure (SMILES): CC[C@H](C)[C@@H]1NC(=O)[C@H](CO)NC(=O)[C@H](CCCCN)NC(=O)[C@H]([C@@H](C)O)NC(=O)[C@H](Cc2c[nH]c3ccccc23)NC(=O)[C@@H](NC(=O)CNC(=O)[C@H](CCCN=C(N)N)NC(=O)[C@H](CC(C)C)NC(=O)[C@H](C)N)CSSC[C@@H](C(=O)N2CCC[C@H]2C(N)=O)NC(=O)[C@@H]2CCCN2C(=O)[C@H](CCCCN)NC(=O)[C@@H]2CCCN2C(=O)[C@@H]2CCCN2C1=O [ALRGCWTKSIPPKPCP]

MIC [6]: 0.789 µM (≈ 2 µg/mL)
MIC [7]: 0.789 µM (≈ 2 µg/mL)
MIC [8]: 0.789 µM (≈ 2 µg/mL)
MIC [9]: 6.31 µM (≈ 16 µg/mL)
MIC [10]: 25.2 µM (≈ 64 µg/mL)
Structure (SMILES): CC[C@H](C)[C@H](NC(=O)[C@H](CCCCN)NC(=O)[C@H](CCCCN)NC(=O)[C@H](CC(C)C)NC(=O)[C@H](CO)NC(=O)CNC(=O)[C@H](CO)NC(=O)CNC(=O)[C@H](CO)NC(=O)CNC(=O)[C@H](CO)NC(=O)CN)C(=O)N[C@@H](Cc1ccccc1)C(=O)N[C@@H](CCCCN)C(=O)N[C@@H](CCCCN)C(=O)N1CCC[C@H]1C(=O)N[C@@H](CCSC)C(=O)N[C@H](C(=O)N[C@H](C(=O)NCC(=O)N[C@H](C(=O)N[C@H](C(=O)N[C@H](C(=O)N1CCC[C@H]1C(=O)N[C@@H](Cc1ccccc1)C(N)=O)[C@@H](C)CC)[C@@H](C)O)C(C)C)[C@@H](C)CC)C(C)C [GSGSGSGSLKKIFKKPMVIGVTIPF]

MIC [11]: 8 µM (≈ 12.7 µg/mL)
MIC [12]: ≥ 32 µM
MIC [13]: ≥ 32 µM
MIC [14]: ≥ 32 µM
MIC [15]: ≥ 32 µM
MIC [16]: ≥ 32 µM
MIC [17]: 4 µM (≈ 6.36 µg/mL)
MIC [18]: ≥ 32 µM
MIC [19]: 2 µM (≈ 3.18 µg/mL)
MIC [20]: 16 µM (≈ 25.5 µg/mL)
MIC [21]: 4 µM (≈ 6.36 µg/mL)
MIC [22]: 4 µM (≈ 6.36 µg/mL)
MIC [23]: 4 µM (≈ 6.36 µg/mL)
MIC [24]: 16 µM (≈ 25.5 µg/mL)
MIC [25]: 4 µM (≈ 6.36 µg/mL)
MIC [26]: 16 µM (≈ 25.5 µg/mL)
Structure (SMILES): NCCCC[C@H](NC(=O)[C@H](CCCCN)NC(=O)[C@H](Cc1cnc[nH]1)NC(=O)[C@H](CCCCN)NC(=O)[C@H](CCCCN)NC(=O)[C@H](Cc1cnc[nH]1)NC(=O)[C@H](CCCCN)NC(=O)[C@H](CCCCN)NC(=O)[C@H](Cc1cnc[nH]1)NC(=O)[C@H](CCCCN)NC(=O)[C@H](CCCCN)NC(=O)[C@@H](N)Cc1cnc[nH]1)C(N)=O [HKKHKKHKKHKK]

MIC [11]: ≥ 256 µM
MIC [12]: ≥ 1020 µM
MIC [13]: ≥ 1020 µM
MIC [14]: ≥ 1020 µM
MIC [15]: ≥ 1020 µM
MIC [16]: ≥ 1020 µM
MIC [17]: ≥ 512 µM
MIC [18]: ≥ 1020 µM
MIC [19]: ≥ 1020 µM
MIC [20]: ≥ 512 µM
MIC [21]: ≥ 256 µM
MIC [22]: ≥ 256 µM
MIC [23]: ≥ 256 µM
MIC [24]: ≥ 512 µM
MIC [25]: ≥ 256 µM
MIC [26]: ≥ 512 µM
Structure (SMILES): NCCCC[C@H](NC(=O)[C@H](CCCCN)NC(=O)[C@@H](N)Cc1cnc[nH]1)C(N)=O [HKK]

MIC [27]: 4 µM (≈ 11.6 µg/mL)
MIC [6]: 2 µM (≈ 5.79 µg/mL)
MIC [28]: 1 µM (≈ 2.89 µg/mL)
MIC [29]: 2 µM (≈ 5.79 µg/mL)
MIC [30]: 2 µM (≈ 5.79 µg/mL)
MIC [31]: 2 µM (≈ 5.79 µg/mL)
MIC [32]: 16 µM (≈ 46.3 µg/mL)
MIC [3]: 8 µM (≈ 23.2 µg/mL)
MIC [33]: ≥ 64 µM
MIC [34]: ≥ 64 µM
MIC [35]: 8 µM (≈ 23.2 µg/mL)
MIC [36]: > 64 µM
MIC [37]: 4 µM (≈ 11.6 µg/mL)
MIC [38]: 4 µM (≈ 11.6 µg/mL)
MIC [39]: 4 µM (≈ 11.6 µg/mL)
Structure (SMILES): CC[C@H](C)[C@H](N)C(=O)N[C@@H](CCCN=C(N)N)C(=O)N1CCC[C@H]1C(=O)N[C@H](C(=O)N[C@H](C(=O)N[C@@H](CCCN=C(N)N)C(=O)N1CCC[C@H]1C(=O)N[C@H](C(=O)N[C@H](C(=O)N[C@@H](CCCN=C(N)N)C(=O)N1CCC[C@H]1C(=O)N[C@H](C(=O)N[C@H](C(=O)N[C@@H](CCCN=C(N)N)C(=O)N1CCC[C@H]1C(=O)N[C@H](C(=O)N[C@H](C(=O)N[C@@H](CCCN=C(N)N)C(=O)N1CCC[C@H]1C(=O)N[C@H](C(=O)N[C@H](C(=O)N[C@@H](CCCN=C(N)N)C(=O)N1CCC[C@H]1C(=O)N[C@H](C(N)=O)[C@@H](C)CC)[C@@H](C)CC)[C@@H](C)CC)[C@@H](C)CC)[C@@H](C)CC)[C@@H](C)CC)[C@@H](C)CC)[C@@H](C)CC)[C@@H](C)CC)[C@@H](C)CC)[C@@H](C)CC [IRPIIRPIIRPIIRPIIRPIIRPI]

MIC [40]: 1.56 µM (≈ 3.6 µg/mL)
MIC [35]: 6.25 µM (≈ 14.4 µg/mL)
MIC [41]: 1.56 µM (≈ 3.6 µg/mL)
Structure (SMILES): CC(C)[C@@H]1NC(=O)[C@H](CCCN=C(N)N)NC(=O)[C@H](Cc2ccccc2)NC(=O)[C@@H](NC(=O)[C@H](Cc2c[nH]c3ccccc23)NC(=O)[C@@H](N)CCCCN)CSSC[C@@H](C(=O)N[C@@H](CCCN=C(N)N)C(=O)O)NC(=O)[C@H](CCCN=C(N)N)NC(=O)[C@H](CCCN=C(N)N)NC(=O)[C@H](Cc2ccc(O)cc2)NC(=O)[C@@H]2CSSC[C@H](NC1=O)C(=O)N[C@@H](Cc1ccc(O)cc1)C(=O)N[C@@H](CCCN=C(N)N)C(=O)NCC(=O)N[C@@H](CCCN=C(N)N)C(=O)N2 [KWCFRVCYRGRCYRRCR]

MIC [42]: 8 µM and 4 µM
MIC [8]: 4 µM (≈ 6.65 µg/mL)
Structure (SMILES): CC[C@H](C)[C@H](NC(=O)[C@H](CC(C)C)NC(=O)[C@H](CCCN=C(N)N)NC(=O)[C@@H](N)CCCN=C(N)N)C(=O)N[C@@H](CCCN=C(N)N)C(=O)N[C@@H](CC(C)C)C(=O)N[C@@H](Cc1c[nH]c2ccccc12)C(=O)N[C@@H](CC(C)C)C(=O)N[C@@H](CCCN=C(N)N)C(=O)N[C@@H](CC(C)C)C(=O)N[C@@H](CC(C)C)C(=O)N[C@@H](CCCN=C(N)N)C(N)=O [RRLIRLWLRLLR]
